Data reported in US5874405A, “Heat shock protein peptides that share sequences with cyclic nucleotide phosphodiesterase and methods for modulating autoimmune central nervous system disease” (priority 1994, dated 1999).
Where no end group is shown, it is not given here.

Test system: antibodies in cerebrospinal fluid (CSF) and sera
Assay: Dot-blot analysis of CSF and sera for antibodies to CNP 173-184 peptide
Assay type: binding, human
Details: for patients whose CSF had antibodies to the peptide: data not shown
Description: Cerebrospinal fluid (CSF) and sera from MS patients and controls were analyzed for antibodies to the peptide derived from CNP isoform 2 (corresponding to amino acids 173-184) using dot-blot analyses. Samples from nine MS patients and five patients with other neurologic diseases (OND) were analyzed. The CNP 173-184 peptide coupled to BSA was adsorbed onto nitrocellulose membranes. Control wells received BSA alone. Two dilutions of paired spinal fluids and sera were added to the wells and the amount of antibody binding determined using peroxidase labeled anti-human IgG and an enhanced chemiluminescent assay (ECL Western Blotting Kit; Amersham International, Plc., Buckinghamshire, England). Using the public domain program, Image 1.40 (available from NIH), the integrated densities of the dots in the CNP 173-184 peptide wells and BSA wells were determined.

## LKKLKPGLEKDF [CNP 173-184 peptide]
MS patients
  patients whose CSF had antibodies to the peptide: 5/9
  number of patients with antibodies in sera: 3
OND patients
  patients whose CSF had antibodies to the peptide: 0/5
  number of patients with antibodies in sera: 1
MS CSF
  densities in peptide wells relative to BSA wells: approximately twofold
